# Values quoted from earlier work as cited in US6352979B1, “Method of treating snakebite and complications resulting therefrom” (priority 2001, dated 2002).
# Assays:
# [1] = tested on: mice; details: doses higher than 3750 mg/kg (accepted oral LD50 for common table salt)
# [2] = tested on: dogs; details: doses higher than 3750 mg/kg (accepted oral LD50 for common table salt)
# [3] = tested on: humans; details: doses exceeding 40 g/m^2
SMILES,adverse effects after intravenous administration [1],adverse effects after intravenous administration [2],adverse effects after administration to humans [3],accepted oral LD50 [mg/kg]
"O=S(=O)([O-])CCSSCCS(=O)(=O)[O-].[Na+].[Na+] [Dimesna, disodium 2,2′-dithiobis ethane sulfonate]",no adverse effects,no adverse effects,no adverse effects,
[Cl-].[Na+] [common table salt],,,,3750
